Reference: patent US9096593B2, “Compounds and methods for kinase modulation, and indications therefor” (Plexxikon Inc., priority 2009, dated 2015)
pIC50: −log10 of the molar value. Like-named read-outs stand apart in the source and are kept apart here.

Columns and labels:
Fms kinase = Fms kinase (Homo sapiens (Human), UniProt P07333); assay: Fms kinase biochemical activity assay (AlphaScreen, biotin-(E4Y)10 phosphorylation)
In short: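 Recombinant human Fms phosphorylating 30 nM biotin-(E4Y)10 with 100 μM ATP (1 ng/well enzyme) in Hepes pH 7.5 buffer with Mg2+/Mn2+, 5% DMSO, 20 min at 30 °C. Phosphotyrosine detected by AlphaScreen streptavidin donor/PY20 acceptor beads; IC50 from signal versus compound concentration.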

c-Kit kinase = c-Kit kinase (Homo sapiens (Human), UniProt P10721); assay: c-Kit kinase biochemical activity assay (AlphaScreen, biotin-(E4Y)10 phosphorylation)
CYP1A2 = CYP1A2 (Homo sapiens (Human), UniProt P05177); assay: CYP enzyme inhibition, fluorescent substrate; conditions: human, 15 min
CYP2C19 = CYP2C19 (Homo sapiens (Human), UniProt P33261); assay: CYP enzyme inhibition, fluorescent substrate; conditions: read-out: Cyp IC50 (μM) 2C19
In short: (§1)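 […]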

CYP2C9 = CYP2C9 (Homo sapiens (Human), UniProt P11712); assay: CYP enzyme inhibition, fluorescent substrate; conditions: for IC50: read-out: Cyp IC50 (μM) 2C9
In short: as §1

CYP2D6 = CYP2D6 (Homo sapiens (Human), UniProt P10635); assay: CYP enzyme inhibition, fluorescent substrate; conditions: read-out: Cyp IC50 (μM) 2D6
CYP3A4(BFC) = CYP3A4(BFC) (Homo sapiens (Human), UniProt P08684); assay: CYP enzyme inhibition, fluorescent substrate; conditions: for IC50: read-out: Cyp IC50 (μM) 3A4(BFC), BFC substrate
In short: as §1

CYP3A4(BQ) = CYP3A4(BQ) (Homo sapiens (Human), UniProt P08684); assay: CYP enzyme inhibition, fluorescent substrate; conditions: for IC50: read-out: Cyp IC50 (μM) 3A4(BQ), BQ substrate
In short: as §1

[1] = 100 μM ATP, read-out: Biochemical (IC50 μM) Fms
[2] = read-out: Biochemical activity (IC50 μM) Fms

Chain of CYP3A4(BQ) (P08684 whole entry): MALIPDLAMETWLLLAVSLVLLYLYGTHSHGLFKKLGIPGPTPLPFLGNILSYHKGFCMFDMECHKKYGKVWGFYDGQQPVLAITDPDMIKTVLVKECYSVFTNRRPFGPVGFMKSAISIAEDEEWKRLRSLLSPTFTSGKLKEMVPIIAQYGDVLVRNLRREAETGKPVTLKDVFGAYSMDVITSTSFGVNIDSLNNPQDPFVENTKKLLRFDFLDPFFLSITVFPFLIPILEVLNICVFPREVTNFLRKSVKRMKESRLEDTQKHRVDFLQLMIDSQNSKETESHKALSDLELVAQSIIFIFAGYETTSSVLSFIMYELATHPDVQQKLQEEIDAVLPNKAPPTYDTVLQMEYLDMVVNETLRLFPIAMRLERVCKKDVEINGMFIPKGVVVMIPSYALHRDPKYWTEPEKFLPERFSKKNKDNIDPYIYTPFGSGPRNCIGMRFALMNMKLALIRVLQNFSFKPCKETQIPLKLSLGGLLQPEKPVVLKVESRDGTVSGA
Chain of CYP3A4(BFC) (P08684 whole entry): as above
Chain of CYP2C9 (P11712 whole entry): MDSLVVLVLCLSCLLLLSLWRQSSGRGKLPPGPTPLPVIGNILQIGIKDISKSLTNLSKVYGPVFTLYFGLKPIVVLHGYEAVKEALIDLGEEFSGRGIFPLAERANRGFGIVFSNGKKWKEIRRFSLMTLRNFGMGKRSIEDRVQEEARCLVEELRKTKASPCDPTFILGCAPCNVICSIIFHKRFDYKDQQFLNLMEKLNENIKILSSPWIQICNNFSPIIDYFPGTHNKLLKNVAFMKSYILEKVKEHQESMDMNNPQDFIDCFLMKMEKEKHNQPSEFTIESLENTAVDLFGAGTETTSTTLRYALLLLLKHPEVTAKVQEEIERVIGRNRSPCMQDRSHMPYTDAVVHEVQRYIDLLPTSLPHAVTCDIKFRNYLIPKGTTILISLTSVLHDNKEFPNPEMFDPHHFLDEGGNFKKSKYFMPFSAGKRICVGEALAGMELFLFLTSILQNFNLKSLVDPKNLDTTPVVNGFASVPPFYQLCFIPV
Chain of CYP1A2 (P05177 whole entry): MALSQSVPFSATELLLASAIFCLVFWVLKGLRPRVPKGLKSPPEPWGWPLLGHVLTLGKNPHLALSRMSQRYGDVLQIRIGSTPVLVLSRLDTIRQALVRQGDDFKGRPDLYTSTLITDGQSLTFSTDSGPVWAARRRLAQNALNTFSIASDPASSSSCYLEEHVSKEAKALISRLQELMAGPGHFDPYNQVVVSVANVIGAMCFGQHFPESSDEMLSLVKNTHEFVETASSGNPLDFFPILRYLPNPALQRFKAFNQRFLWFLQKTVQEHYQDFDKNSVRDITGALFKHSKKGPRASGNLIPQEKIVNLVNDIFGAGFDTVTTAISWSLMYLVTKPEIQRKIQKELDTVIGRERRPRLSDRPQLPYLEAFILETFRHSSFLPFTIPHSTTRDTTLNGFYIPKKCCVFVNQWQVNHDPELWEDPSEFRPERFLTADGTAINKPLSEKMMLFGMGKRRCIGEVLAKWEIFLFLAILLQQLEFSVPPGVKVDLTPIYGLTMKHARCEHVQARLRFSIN
Chain of CYP2C19 (P33261 whole entry): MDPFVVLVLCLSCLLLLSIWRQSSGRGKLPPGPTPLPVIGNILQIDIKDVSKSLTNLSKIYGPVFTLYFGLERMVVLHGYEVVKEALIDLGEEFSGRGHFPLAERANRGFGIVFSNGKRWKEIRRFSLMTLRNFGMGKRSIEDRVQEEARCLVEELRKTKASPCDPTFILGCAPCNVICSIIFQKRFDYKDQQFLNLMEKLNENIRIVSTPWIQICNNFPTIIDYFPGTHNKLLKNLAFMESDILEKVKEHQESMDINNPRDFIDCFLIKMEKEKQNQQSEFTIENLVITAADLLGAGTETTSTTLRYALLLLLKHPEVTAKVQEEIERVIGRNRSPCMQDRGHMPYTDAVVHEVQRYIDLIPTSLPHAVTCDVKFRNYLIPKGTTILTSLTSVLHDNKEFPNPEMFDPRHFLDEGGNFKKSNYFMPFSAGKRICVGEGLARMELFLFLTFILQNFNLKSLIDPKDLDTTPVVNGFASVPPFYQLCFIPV
Chain of Fms kinase (P07333 20-972): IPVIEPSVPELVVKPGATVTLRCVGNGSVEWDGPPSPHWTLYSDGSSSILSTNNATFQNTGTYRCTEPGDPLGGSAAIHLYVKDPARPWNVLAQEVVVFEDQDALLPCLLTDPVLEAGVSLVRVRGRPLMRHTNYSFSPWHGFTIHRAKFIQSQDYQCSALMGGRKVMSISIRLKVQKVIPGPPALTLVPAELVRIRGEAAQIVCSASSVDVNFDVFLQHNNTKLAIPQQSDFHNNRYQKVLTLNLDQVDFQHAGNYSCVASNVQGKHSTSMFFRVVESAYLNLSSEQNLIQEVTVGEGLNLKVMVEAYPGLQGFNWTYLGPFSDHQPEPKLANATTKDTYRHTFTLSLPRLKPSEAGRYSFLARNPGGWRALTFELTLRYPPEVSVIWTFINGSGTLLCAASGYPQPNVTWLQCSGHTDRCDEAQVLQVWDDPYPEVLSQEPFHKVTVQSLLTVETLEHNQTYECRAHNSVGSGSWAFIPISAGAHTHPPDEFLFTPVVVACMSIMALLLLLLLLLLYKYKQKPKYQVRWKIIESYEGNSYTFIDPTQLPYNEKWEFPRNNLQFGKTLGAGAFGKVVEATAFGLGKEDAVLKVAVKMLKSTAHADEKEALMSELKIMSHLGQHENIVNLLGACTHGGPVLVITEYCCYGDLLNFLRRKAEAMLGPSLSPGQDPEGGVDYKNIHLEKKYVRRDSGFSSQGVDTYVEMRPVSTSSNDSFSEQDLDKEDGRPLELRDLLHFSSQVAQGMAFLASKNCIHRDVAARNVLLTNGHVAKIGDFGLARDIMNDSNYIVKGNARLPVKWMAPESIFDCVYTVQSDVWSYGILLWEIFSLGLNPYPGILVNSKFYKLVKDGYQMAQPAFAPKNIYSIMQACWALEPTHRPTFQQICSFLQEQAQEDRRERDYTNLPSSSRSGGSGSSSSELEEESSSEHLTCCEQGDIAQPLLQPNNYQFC
Chain of c-Kit kinase (P10721 26-976): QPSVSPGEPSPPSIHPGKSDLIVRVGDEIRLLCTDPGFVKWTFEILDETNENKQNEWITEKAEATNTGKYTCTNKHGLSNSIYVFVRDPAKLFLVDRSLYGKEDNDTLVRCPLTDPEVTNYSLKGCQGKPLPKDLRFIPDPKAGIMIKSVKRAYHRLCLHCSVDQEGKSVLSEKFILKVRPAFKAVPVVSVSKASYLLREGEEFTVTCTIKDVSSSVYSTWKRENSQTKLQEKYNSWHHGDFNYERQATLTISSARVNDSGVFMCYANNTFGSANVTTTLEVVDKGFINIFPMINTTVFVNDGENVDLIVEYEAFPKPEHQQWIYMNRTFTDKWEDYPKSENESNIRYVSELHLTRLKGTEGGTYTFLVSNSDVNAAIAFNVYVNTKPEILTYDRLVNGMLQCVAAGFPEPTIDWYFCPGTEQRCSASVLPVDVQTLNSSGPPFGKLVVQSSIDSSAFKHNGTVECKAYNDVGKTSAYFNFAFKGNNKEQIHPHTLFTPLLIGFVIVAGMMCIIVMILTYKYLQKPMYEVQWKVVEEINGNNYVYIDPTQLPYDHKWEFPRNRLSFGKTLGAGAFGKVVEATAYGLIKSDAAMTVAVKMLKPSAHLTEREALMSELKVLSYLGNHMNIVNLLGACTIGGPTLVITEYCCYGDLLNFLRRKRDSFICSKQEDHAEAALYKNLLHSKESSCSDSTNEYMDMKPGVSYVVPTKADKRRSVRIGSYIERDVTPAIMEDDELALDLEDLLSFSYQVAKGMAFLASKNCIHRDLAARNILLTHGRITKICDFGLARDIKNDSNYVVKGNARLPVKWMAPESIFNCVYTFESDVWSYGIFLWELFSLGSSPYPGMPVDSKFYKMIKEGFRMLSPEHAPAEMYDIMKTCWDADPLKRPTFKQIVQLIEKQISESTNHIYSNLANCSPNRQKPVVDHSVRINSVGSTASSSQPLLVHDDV
Chain of CYP2D6 (P10635 whole entry): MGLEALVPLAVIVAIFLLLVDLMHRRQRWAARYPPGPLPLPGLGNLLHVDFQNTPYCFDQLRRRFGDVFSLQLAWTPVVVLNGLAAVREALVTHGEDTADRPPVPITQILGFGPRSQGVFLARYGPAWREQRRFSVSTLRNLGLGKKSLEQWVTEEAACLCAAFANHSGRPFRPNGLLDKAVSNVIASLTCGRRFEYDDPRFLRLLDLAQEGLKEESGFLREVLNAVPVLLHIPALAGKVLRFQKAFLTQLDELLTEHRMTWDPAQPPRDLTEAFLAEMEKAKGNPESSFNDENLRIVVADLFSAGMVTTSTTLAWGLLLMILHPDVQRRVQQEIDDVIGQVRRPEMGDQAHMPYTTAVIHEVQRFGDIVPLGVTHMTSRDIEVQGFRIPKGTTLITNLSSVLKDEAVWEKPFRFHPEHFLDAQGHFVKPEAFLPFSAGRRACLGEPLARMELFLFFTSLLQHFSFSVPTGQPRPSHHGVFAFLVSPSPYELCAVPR

COc1ccc(CNc2ccc(Cc3c[nH]c4ncc(C)cc34)c(F)n2)cn1 [Compound P-2029, [6-Fluoro-5-(5-methyl-1H-pyrrolo[2,3-b]pyridin-3-ylmethyl)-pyridin-2-yl]-(6-methoxy-pyridin-3-ylmethyl)-amine]
IC50 (Fms kinase; [1]): < 0.1 µM
Biochemical activity selectivity (Kit IC50/Fms IC50) (Fms kinase): >20
IC50 (Fms kinase; [2]): < 0.1 µM
IC50 (c-Kit kinase): > 0.1 µM
pIC50 (CYP1A2): < 5.00
IC50 (CYP2C19): < 5 µM
IC50 (CYP2C9): < 5 µM
IC50 (CYP2D6): > 10 µM
pIC50 (CYP3A4(BFC)): 5.00 to 5.30
pIC50 (CYP3A4(BQ)): 5.00 to 5.30

COc1ncc(F)cc1CNc1ncc(Cc2c[nH]c3ncc(C)cc23)cn1 [Compound P-2061, (5-Fluoro-2-methoxy-pyridin-3-ylmethyl)-[5-(5-methyl-1H-pyrrolo[2,3-b]pyridin-3-ylmethyl)-pyrimidin-2-yl]-amine]
Biochemical activity selectivity (Kit IC50/Fms IC50) (Fms kinase): >20
IC50 (Fms kinase; [2]): < 0.1 µM
IC50 (c-Kit kinase): > 0.1 µM
pIC50 (CYP1A2): < 5.00
IC50 (CYP2C19): > 10 µM
pIC50 (CYP2C9): 5.00 to 5.30
IC50 (CYP2D6): > 10 µM
IC50 (CYP3A4(BFC)): > 10 µM
pIC50 (CYP3A4(BQ)): 5.00 to 5.30

COc1ncc(CNc2ccc(Cc3c[nH]c4ncc(Cl)cc34)c(F)n2)cc1F [Compound P-2165, [5-(5-Chloro-1H-pyrrolo[2,3-b]pyridin-3-ylmethyl)-6-fluoro-pyridin-2-yl]-(5-fluoro-6-methoxy-pyridin-3-ylmethyl)-amine]
IC50 (Fms kinase; [1]): < 0.1 µM
Biochemical activity selectivity (Kit IC50/Fms IC50) (Fms kinase): >20
IC50 (Fms kinase; [2]): < 0.1 µM
IC50 (c-Kit kinase): > 0.1 µM
pIC50 (CYP1A2): < 5.00
IC50 (CYP2C19): > 10 µM
IC50 (CYP2C9): > 10 µM
IC50 (CYP2D6): > 10 µM
IC50 (CYP3A4(BFC)): > 10 µM
IC50 (CYP3A4(BQ)): > 10 µM

Fc1cncc(CNc2ccc(Cc3c[nH]c4ncc(Cl)cc34)c(F)n2)c1 [Compound P-2001, [5-(5-Chloro-1H-pyrrolo[2,3-b]pyridin-3-ylmethyl)-6-fluoro-pyridin-2-yl]-(5-fluoro-pyridin-3-ylmethyl)-amine]
Biochemical activity selectivity (Kit IC50/Fms IC50) (Fms kinase): >20
IC50 (Fms kinase; [2]): < 0.1 µM
IC50 (c-Kit kinase): > 0.1 µM
pIC50 (CYP1A2): < 5.00
IC50 (CYP2C19): < 5 µM
pIC50 (CYP2C9): 5.00 to 5.30
IC50 (CYP2D6): > 10 µM
pIC50 (CYP3A4(BFC)): 5.00 to 5.30
pIC50 (CYP3A4(BQ)): 5.00 to 5.30

Cc1cnc2[nH]cc(Cc3ccc(NCc4cccnc4F)nc3F)c2c1 [Compound P-2103, [6-Fluoro-5-(5-methyl-1H-pyrrolo[2,3-b]pyridin-3-ylmethyl)-pyridin-2-yl]-(2-fluoro-pyridin-3-ylmethyl)-amine]
Biochemical activity selectivity (Kit IC50/Fms IC50) (Fms kinase): >20
IC50 (Fms kinase; [2]): < 0.1 µM
IC50 (c-Kit kinase): > 0.1 µM
pIC50 (CYP1A2): < 5.00
IC50 (CYP2C19): < 5 µM
IC50 (CYP2C9): < 5 µM
IC50 (CYP2D6): > 10 µM
pIC50 (CYP3A4(BFC)): 5.00 to 5.30
pIC50 (CYP3A4(BQ)): 5.00 to 5.30

Cc1cnc2[nH]cc(Cc3cnc(NCc4cccc(N5CCCC5)n4)nc3)c2c1 [Compound P-2082, [5-(5-Methyl-1H-pyrrolo[2,3-b]pyridin-3-ylmethyl)-pyrimidin-2-yl]-(6-pyrrolidin-1-yl-pyridin-2-ylmethyl)-amine]
Biochemical activity selectivity (Kit IC50/Fms IC50) (Fms kinase): <20
IC50 (Fms kinase; [2]): < 0.1 µM
IC50 (c-Kit kinase): < 0.1 µM
pIC50 (CYP1A2): < 5.00
IC50 (CYP2C19): < 5 µM
IC50 (CYP2C9): < 5 µM
IC50 (CYP2D6): > 10 µM
IC50 (CYP3A4(BFC)): < 5 µM
IC50 (CYP3A4(BQ)): < 5 µM

COc1ncc(CNc2ncc(Cc3c[nH]c4ncc(C)cc34)cn2)cc1F [Compound P-2073, (5-Fluoro-6-methoxy-pyridin-3-ylmethyl)-[5-(5-methyl-1H-pyrrolo[2,3-b]pyridin-3-ylmethyl)-pyrimidin-2-yl]-amine]
Biochemical activity selectivity (Kit IC50/Fms IC50) (Fms kinase): >20
IC50 (Fms kinase; [2]): < 0.1 µM
IC50 (c-Kit kinase): > 0.1 µM
pIC50 (CYP1A2): < 5.00
IC50 (CYP2C19): > 10 µM
IC50 (CYP2C9): < 5 µM
IC50 (CYP2D6): > 10 µM
pIC50 (CYP3A4(BFC)): 5.00 to 5.30
IC50 (CYP3A4(BQ)): > 10 µM

Cc1cnc2[nH]cc(Cc3cnc(NCc4ccc(C(F)(F)F)nc4)c(F)c3)c2c1 [Compound P-2146, [3-Fluoro-5-(5-methyl-1H-pyrrolo[2,3-b]pyridin-3-ylmethyl)-pyridin-2-yl]-(6-trifluoromethyl-pyridin-3-ylmethyl)-amine]
Biochemical activity selectivity (Kit IC50/Fms IC50) (Fms kinase): <20
IC50 (Fms kinase; [2]): < 0.1 µM
IC50 (c-Kit kinase): < 0.1 µM
pIC50 (CYP1A2): < 5.00
IC50 (CYP2C19): < 5 µM
pIC50 (CYP2C9): 5.00 to 5.30
IC50 (CYP2D6): > 10 µM
IC50 (CYP3A4(BFC)): > 10 µM
IC50 (CYP3A4(BQ)): > 10 µM
